From patent publication US10246437B2, “Crystal form of neratinib maleate and preparation method therefor” (CRYSTAL PHARMATECH CO., LTD, priority 2015, dated 2019)
Converted amounts (≈) assume the structure as drawn. “Also recorded” adds a separate entry of the source. Where a name gives a salt, the structure may show the parent alone.

Tests used:
[1] = as disclosed in CN101918390B; cited from earlier work
[2] = Solubility comparison in pH 1.8 SGF and high purity water, saturated solutions determined by HPLC; format: physicochemical; conditions: for Solubility: maleate; for Solubility in comparison to maleate Form II in CN101918390B: pH 1.8 SGF and high purity water, after 1, 4 and 24 hours; for solubility at 1 h / solubility at 4 h / solubility at 24 h: thermodynamic from solid
Description: Maleate crystalline Form A, Form B of the present invention and maleate Form II in CN101918390B were added in pH 1.8 SGF (simulated gastric fluid), and in high purity water to obtain suspensions. Concentrations in the saturation solutions were determined after 1 hour, 4 hours and 24 hours by HPLC.

[3] = Stability assessment on storage, XRPD patterns collected after storage; format: physicochemical; conditions: maleate
Description: Form B in the present invention were stored under 5° C., 25° C./60% relative humidity and 40° C./75% RH for 90 days. XRPD patterns were collected after storage.
Form C of the present invention was stored under 5° C., 25° C./60% RH and 40° C./75% relative humidity for 330 days. XRPD patterns were collected after storage.

[4] = Stability comparison: 1:1 mixed suspension of Form C and Form II stirred in solvent, solid tested by XRPD; format: physicochemical; conditions: nitromethane, 24 hours, Form C versus Form II
Description: 10.0 mg of maleate crystalline Form C and maleate crystalline Form II in CN101918390B were mixed at a ratio of 1:1 and added into 1.0 mL of solvent to obtain a suspension. The suspension was magnetically stirred at 500 rpm at 25° C. for 24 hours, and centrifuged to give a solid which was tested by XRPD.

[5] = Hygroscopicity by dynamic vapor sorption (DVS); format: physicochemical; conditions: DVS at 25° C., 80% RH; maleate
Description: Hygroscopicity of 10 mg of Form C of the present invention was tested using dynamic vapor sorption (DVS) at 25° C. […].
About hygroscopicity characterization description and definition of hygroscopicity (Chinese Pharmacopoeia 2010 edition appendix XIXJ Drug hygroscopic test guidelines, test at 25° C.+/−1° C., 80% Relative Humidity) • deliquescent: sufficient water is absorbed to form a liquid; • very hygroscopic: increase in mass is equal to or greater than 15 percent; • hygroscopic: increase in mass is less than 15 percent and equal to or greater than 2 percent; • slightly hygroscopic: increase in mass is less than 2 percent and equal to or greater than 0.2 percent. • no or almost no hygroscopic: increase in mass is less than 0.2%

For `CCOc1cc2ncc(C#N)c(Nc3ccc(OCc4ccccn4)c(Cl)c3)c2cc1NC(=O)/C=C/CN(C)C` [Form I], the “Form conversion by absorbing moisture in the air” value [1] is listed as “can easily convert to Form II”.
For `CCOc1cc2ncc(C#N)c(Nc3ccc(OCc4ccccn4)c(Cl)c3)c2cc1NC(=O)/C=C/CN(C)C` [Form B, (2E)-N-[4-[[3-chloro-4-[(pyridin-2-yl)methoxy]phenyl]amino]-3-cyano-7-ethoxyquinolin-6-yl]-4-(dimethylamino)but-2-enamide maleate], the Solubility ([2]; H2O (high purity water), 1 h) was greater than 5400 µg/mL, the Solubility ([2]; H2O (high purity water), 4 h) was greater than 5400 µg/mL and the Solubility ([2]; H2O (high purity water), 24 h) was greater than 5400 µg/mL. For the same compound, the “Solubility in comparison to maleate Form II in CN101918390B” value [2] was “higher solubility”, the Solubility ([2]; pH 1.8 SGF, 1 h) was greater than 6700 µg/mL and the Solubility ([2]; pH 1.8 SGF, 4 h) was greater than 6700 µg/mL. The Solubility ([2]; pH 1.8 SGF, 24 h) was greater than 6700 µg/mL, the “Form Change” value ([3]; 5° C., 90 days) was “remains unchanged; also recorded: Form B doesn't change” and the “Form Change” value ([3]; 25° C./60% RH, 90 days) was “remains unchanged; also recorded: Form B doesn't change”. The “Form Change” value ([3]; 40° C./75% RH, 90 days) was “remains unchanged; also recorded: Form B doesn't change”.
For `CCOc1cc2ncc(C#N)c(Nc3ccc(OCc4ccccn4)c(Cl)c3)c2cc1NC(=O)/C=C/CN(C)C` [Form C, (2E)-N-[4-[[3-chloro-4-[(pyridin-2-yl)methoxy]phenyl]amino]-3-cyano-7-ethoxyquinolin-6-yl]-4-(dimethylamino)but-2-enamide maleate], the “Stability comparison (form conversion in mixed suspension)” value ([4]; maleate) was “more stable than maleate crystalline Form II”, the “weight increment under 80% Relative Humidity” value [5] was 1.01% and the “Form Change” value ([3]; 5° C., 330 days) was “remains unchanged; also recorded: Form C doesn't change”. For the same compound, the “Form Change” value ([3]; 25° C./60% RH, 330 days) was “remains unchanged; also recorded: Form C doesn't change” and the “Form Change” value ([3]; 40° C./75% RH, 330 days) was “remains unchanged; also recorded: Form C doesn't change”.
In the case of `CCOc1cc2ncc(C#N)c(Nc3ccc(OCc4ccccn4)c(Cl)c3)c2cc1NC(=O)/C=C/CN(C)C` [Form II, reference compound], the “Stability comparison (form conversion in mixed suspension)” value [4] is reported as “transferred to crystalline Form C”, the solubility at 1 h ([2]; simulated gastric fluid (SGF), simulated gastric fluid, pH 1.8 SGF, 1 h) is reported as 3300 µg/mL (≈ 5.92 mM) and the solubility at 4 h ([2]; simulated gastric fluid (SGF), simulated gastric fluid, pH 1.8 SGF, 4 h) is reported as 3200 µg/mL (≈ 5.74 mM). For the same compound, the solubility at 24 h ([2]; simulated gastric fluid (SGF), simulated gastric fluid, pH 1.8 SGF, 24 h) was 3100 µg/mL (≈ 5.56 mM), the solubility at 1 h ([2]; H2O (high purity water), 1 h) was 1000 µg/mL (≈ 1.8 mM) and the solubility at 4 h ([2]; H2O (high purity water), 4 h) was 940 µg/mL (≈ 1.69 mM). It also gave a solubility at 24 h ([2]; H2O (high purity water), 24 h) of 940 µg/mL (≈ 1.69 mM).
`CCOc1cc2ncc(C#N)c(Nc3ccc(OCc4ccccn4)c(Cl)c3)c2cc1NC(=O)/C=C/CN(C)C` [Form A, (2E)-N-[4-[[3-chloro-4-[(pyridin-2-yl)methoxy]phenyl]amino]-3-cyano-7-ethoxyquinolin-6-yl]-4-(dimethylamino)but-2-enamide maleate] gave a solubility at 1 h ([2]; pH 1.8, simulated gastric fluid, pH 1.8 SGF, 1 h) greater than 8400 µg/mL, a solubility at 4 h ([2]; pH 1.8, simulated gastric fluid, pH 1.8 SGF, 4 h) greater than 8400 µg/mL and a solubility at 24 h ([2]; pH 1.8, simulated gastric fluid, pH 1.8 SGF, 24 h) greater than 8400 µg/mL. For the same compound, the “Solubility in comparison to maleate Form II in CN101918390B” value [2] was “higher solubility”, the solubility at 1 h ([2]; water, H2O (high purity water), 1 h) was greater than 3900 µg/mL and the solubility at 4 h ([2]; water, H2O (high purity water), 4 h) was greater than 3900 µg/mL. It also gave a solubility at 24 h ([2]; water, H2O (high purity water), 24 h) greater than 3900 µg/mL.
